Experimental data as given in ChEMBL document CHEMBL3885881, “DrugMatrix”.

Organism: Rattus norvegicus
Test: DrugMatrix - Regimen: Daily Repeat
Format: toxicity, organism-based, Sprague-Dawley
Set-up: regimen Daily Repeat, gender Male, age 6-8 weeks
Conditions: in vivo, po, route oral GAVAGE, vehicle 100 % SALINE; for ABSOLUTE BASOPHIL / ABSOLUTE EOSINOPHIL / ABSOLUTE LYMPHOCYTE / ABSOLUTE MONOCYTE / ABSOLUTE SEGMENTED NEUTROPHIL / BASOPHIL / EOSINOPHIL / ERYTHROCYTE COUNT / HEMATOCRIT / HEMOGLOBIN / LEUKOCYTE COUNT / MEAN CORPUSCULAR HEMOGLOBIN / MEAN CORPUSCULAR HEMOGLOBIN CONCENTRATION / MEAN CORPUSCULAR VOLUME / MONOCYTE / NEUTROPHIL / NUCLEATED RED BLOOD CELLS / PLATELET COUNT: tissue Blood; for ALANINE AMINOTRANSFERASE / ALBUMIN / ALKALINE PHOSPHATASE / ASPARTATE AMINOTRANSFERASE / BLOOD UREA NITROGEN / CARBON DIOXIDE / CHLORIDE / CHOLESTEROL / CREATINE PHOSPHOKINASE / CREATININE / GLUCOSE / LACTATE DEHYDROGENASE / LIPASE / PHOSPHORUS / POTASSIUM / SODIUM / TOTAL BILIRUBIN / TOTAL PROTEIN / URIC ACID: tissue Plasma
[1] = 0 mg/kg, 72 h, dose level Control, time 3 day
[2] = 0 mg/kg, 120 h, dose level Control, time 5 day
[3] = 40 mg/kg, 72 h, dose level Low, time 3 day

With `Oc1ccccc1O` [CATECHOL] the “ABSOLUTE BASOPHIL” value [1] was 0 CELLS/uL, the “ABSOLUTE EOSINOPHIL” value [1] was 65.67 CELLS/uL and the “ABSOLUTE LYMPHOCYTE” value [1] was 17283.5 CELLS/uL. For the same compound, the “ABSOLUTE MONOCYTE” value [1] was 0 CELLS/uL, the “ABSOLUTE SEGMENTED NEUTROPHIL” value [1] was 1284.17 CELLS/uL and the BASOPHIL [1] was 0%. For the same compound, the EOSINOPHIL [1] was 0.33%, the “ERYTHROCYTE COUNT” value [1] was 5.46 x10E6/uL and the HEMATOCRIT [1] was 34.28%. The HEMOGLOBIN [1] was 13.78 G/DL, the “LEUKOCYTE COUNT” value [1] was 18.63 x10E3/uL and the “MEAN CORPUSCULAR HEMOGLOBIN” value [1] was 25.3 pg. The “MEAN CORPUSCULAR HEMOGLOBIN CONCENTRATION” value [1] was 40.22 G/DL, the “MEAN CORPUSCULAR VOLUME” value [1] was 62.87 fL and the MONOCYTE [1] was 0%. For the same compound, the NEUTROPHIL [1] was 7%, the “NUCLEATED RED BLOOD CELLS” value [1] was 0 /100WBC and the “PLATELET COUNT” value [1] was 1244.83 x10E3/uL. For the same compound, the “ALANINE AMINOTRANSFERASE” value [1] was 52.83 u/L, the ALBUMIN [1] was 4 G/DL and the “ALKALINE PHOSPHATASE” value [1] was 327.67 u/L. For the same compound, the “ASPARTATE AMINOTRANSFERASE” value [1] was 78.83 u/L, the “BLOOD UREA NITROGEN” value [1] was 13.83 mg/dL and the “CARBON DIOXIDE” value [1] was 26.67 mmol/L. The CHLORIDE [1] was 99.67 MEQ/L, the CHOLESTEROL [1] was 69 mg/dL and the “CREATINE PHOSPHOKINASE” value [1] was 350.17 u/L. The CREATININE [1] was 0.21 mg/dL, the GLUCOSE [1] was 173.83 mg/dL and the “LACTATE DEHYDROGENASE” value [1] was 168.33 u/L. It also gave an LIPASE [1] of 11 u/L, a PHOSPHORUS [1] of 12.7 mg/dL and a POTASSIUM [1] of 6.88 MEQ/L. For the same compound, the SODIUM [1] was 141.68 MEQ/L, the “TOTAL BILIRUBIN” value [1] was 0.22 mg/dL and the “TOTAL PROTEIN” value [1] was 6.02 G/DL. For the same compound, the “URIC ACID” value [1] was 1.9 mg/dL, the “ABSOLUTE BASOPHIL” value [2] was 0 CELLS/uL and the “ABSOLUTE EOSINOPHIL” value [2] was 14.83 CELLS/uL. For the same compound, the “ABSOLUTE LYMPHOCYTE” value [2] was 12880 CELLS/uL, the “ABSOLUTE MONOCYTE” value [2] was 90.67 CELLS/uL and the “ABSOLUTE SEGMENTED NEUTROPHIL” value [2] was 864.5 CELLS/uL. The BASOPHIL [2] was 0%, the EOSINOPHIL [2] was 0.17% and the “ERYTHROCYTE COUNT” value [2] was 5.83 x10E6/uL. For the same compound, the HEMATOCRIT [2] was 35.87%, the HEMOGLOBIN [2] was 14 G/DL and the “LEUKOCYTE COUNT” value [2] was 13.85 x10E3/uL. For the same compound, the “MEAN CORPUSCULAR HEMOGLOBIN” value [2] was 24.03 pg, the “MEAN CORPUSCULAR HEMOGLOBIN CONCENTRATION” value [2] was 39.03 G/DL and the “MEAN CORPUSCULAR VOLUME” value [2] was 61.53 fL. The MONOCYTE [2] was 0.67%, the NEUTROPHIL [2] was 6.67% and the “NUCLEATED RED BLOOD CELLS” value [2] was 0 /100WBC. The “PLATELET COUNT” value [2] was 1041.83 x10E3/uL, the “ALANINE AMINOTRANSFERASE” value [2] was 56 u/L and the ALBUMIN [2] was 4.47 G/DL. The “ALKALINE PHOSPHATASE” value [2] was 319 u/L, the “ASPARTATE AMINOTRANSFERASE” value [2] was 89.17 u/L and the “BLOOD UREA NITROGEN” value [2] was 15.2 mg/dL. The “CARBON DIOXIDE” value [2] was 24 mmol/L, the CHLORIDE [2] was 104.4 MEQ/L and the CHOLESTEROL [2] was 69.5 mg/dL. The “CREATINE PHOSPHOKINASE” value [2] was 295.83 u/L, the CREATININE [2] was 0.21 mg/dL and the GLUCOSE [2] was 124.33 mg/dL. The “LACTATE DEHYDROGENASE” value [2] was 325.5 u/L, the LIPASE [2] was 14.67 u/L and the PHOSPHORUS [2] was 11.45 mg/dL. The POTASSIUM [2] was 6.74 MEQ/L, the SODIUM [2] was 151.4 MEQ/L and the “TOTAL BILIRUBIN” value [2] was 0.23 mg/dL. The “TOTAL PROTEIN” value [2] was 6.45 G/DL, the “URIC ACID” value [2] was 1.18 mg/dL and the “ABSOLUTE BASOPHIL” value [3] was 0 CELLS/uL. The “ABSOLUTE EOSINOPHIL” value [3] was 0 CELLS/uL, the “ABSOLUTE LYMPHOCYTE” value [3] was 14994 CELLS/uL and the “ABSOLUTE MONOCYTE” value [3] was 0 CELLS/uL. For the same compound, the “ABSOLUTE SEGMENTED NEUTROPHIL” value [3] was 739.33 CELLS/uL, the BASOPHIL [3] was 0% and the EOSINOPHIL [3] was 0%. The “ERYTHROCYTE COUNT” value [3] was 5.48 x10E6/uL, the HEMATOCRIT [3] was 33.5% and the HEMOGLOBIN [3] was 13.33 G/DL. For the same compound, the “LEUKOCYTE COUNT” value [3] was 15.73 x10E3/uL, the “MEAN CORPUSCULAR HEMOGLOBIN” value [3] was 24.37 pg and the “MEAN CORPUSCULAR HEMOGLOBIN CONCENTRATION” value [3] was 39.87 G/DL. For the same compound, the “MEAN CORPUSCULAR VOLUME” value [3] was 61.1 fL, the MONOCYTE [3] was 0% and the NEUTROPHIL [3] was 4.67%. The “NUCLEATED RED BLOOD CELLS” value [3] was 0 /100WBC, the “PLATELET COUNT” value [3] was 1095.33 x10E3/uL and the “ALANINE AMINOTRANSFERASE” value [3] was 43.67 u/L. The ALBUMIN [3] was 4.2 G/DL, the “ALKALINE PHOSPHATASE” value [3] was 287 u/L and the “ASPARTATE AMINOTRANSFERASE” value [3] was 70.67 u/L. For the same compound, the “BLOOD UREA NITROGEN” value [3] was 13.33 mg/dL, the “CARBON DIOXIDE” value [3] was 23.67 mmol/L and the CHLORIDE [3] was 101 MEQ/L. For the same compound, the CHOLESTEROL [3] was 74 mg/dL, the “CREATINE PHOSPHOKINASE” value [3] was 350.33 u/L and the CREATININE [3] was 0.22 mg/dL. The GLUCOSE [3] was 176.67 mg/dL, the “LACTATE DEHYDROGENASE” value [3] was 113.33 u/L and the LIPASE [3] was 10.33 u/L. The PHOSPHORUS [3] was 11.93 mg/dL, the POTASSIUM [3] was 6.1 MEQ/L and the SODIUM [3] was 140.57 MEQ/L. The “TOTAL BILIRUBIN” value [3] was 0.17 mg/dL, the “TOTAL PROTEIN” value [3] was 6.13 G/DL and the “URIC ACID” value [3] was 2 mg/dL.
